Data on 18 compounds can be found in US8633315B2, “Substituted hydroxyethyl amine compounds as beta-secretase modulators and methods of use” (Amgen Inc., priority 2007, dated 2014).

What is called IC50 is the concentration that gives 50% inhibition.

One test has as its target BACE1 (Homo sapiens, UniProt P56817). In words: In vitro enzymatic BACE FRET (fluorescence resonance energy transfer) assay. The class given is biochemical. On the procedure: In Vitro Enzymatic BACE FRET (Fluorescence Resonance Energy Transfer) Assay (Enzyme Assay Data in Table 1)
The assay buffer used in this screen is 0.05 M acetate, pH 4.2, 10% DMSO final, 100 uM genapol (which is a nonionic detergent, below its Critical Micelle Concentration). […] The assay is effectively started by the addition of FRET substrate (50 nM) and the combination is incubated for one hour. The FRET assay is terminated with by addition of Tris buffer, which raises the pH to neutrality, and the fluorescence is determined. The FRET substrate is a peptide with commercially available fluorophore and quencher, on opposite sides of the BACE cleavage site. Proteolytic cleavage of the FRET substrate releases quenching of fluorescence (excitation […] and emission […]).

In test [1] the test system is Cells stably expressing Amyloid Precursor Protein (APP). In words: In vitro BACE cell-based assay (HEK cell assay): Aβ40 in conditioned medium by sandwich ELISA. As to conditions: Aβ40 in conditioned medium after 24 h incubation. As for the experimental part: In Vitro BACE Cell-Based Assay:
The cell-based assay measures inhibition or reduction of Aβ40 in conditioned medium of test compound treated cells expressing amyloid precursor protein.
Cells stably expressing Amyloid Precursor Protein (APP) were plated at a density of 40K cells/well in 96 well plates (Costar). The cells were cultivated for 24 hours at 37° C. and 5% CO2 in DMEM supplemented with 10% FBS. The test compounds were then added to cells in 10-point dose response concentrations with the starting concentration being either 100 μM or 10 μM. The compounds were diluted from stock solutions in DMSO and the final DMSO concentration of the test compounds on cells was 0.1%. After 24 h of incubation with the test compounds the supernatant conditioned media was collected and the Aβ 40 levels were determined using a sandwich ELISA. The IC50 of the compound was calculated from the percent of control or percent inhibition of Aβ 40 as a function of the concentration of the test compound.
The sandwich ELISA to detect Aβ 40 was performed in 96 well microtiter plates, which were pre-treated with goat anti-rabbit IgG (Pierce). The capture and detecting antibody pair that were used to detect Aβ 40 from cell supernatants were affinity purified pAb40 (Biosource) and biotinylated 6E10 (Signet Labs Inc.), respectively. The optimal concentration for the pAb40 antibody was 3 μg/ml in Superblock/TBS (Pierce) that was supplemented with 0.05% Tween 20 (Sigma). Optimal concentration for the detection antibody 6E10-biotinylated was 0.5 μg/ml in Superblock/TBS (Pierce) that had been supplemented with 2% normal goat serum and 2% normal mouse serum.
Cellular supernatants were incubated with the capture antibody for 3 h at 4° C., followed by 3 wash steps in TBS-tween (0.05%). The detecting antibody incubation was for 2 h at 4° C., again followed by the wash steps as described previously. The final readout of the ELISA is Time-Resolved Fluorescence (counts per minute) using Delfia reagents Streptavidin-Europium and Enhancement solutions (Perkin Elmer) and the Victor 2 multilabel counter (Perkin Elmer).
Of the compounds tested, in-the cell-based assay, data for each of Examples 33-156 is provided in Table 1 and Examples 208-246 are provided in Table 4.
On the technique in general: An ELISA detects its analyte on a solid surface through an enzyme-linked reagent.

Chain of BACE1 (P56817 46-501, species assumed): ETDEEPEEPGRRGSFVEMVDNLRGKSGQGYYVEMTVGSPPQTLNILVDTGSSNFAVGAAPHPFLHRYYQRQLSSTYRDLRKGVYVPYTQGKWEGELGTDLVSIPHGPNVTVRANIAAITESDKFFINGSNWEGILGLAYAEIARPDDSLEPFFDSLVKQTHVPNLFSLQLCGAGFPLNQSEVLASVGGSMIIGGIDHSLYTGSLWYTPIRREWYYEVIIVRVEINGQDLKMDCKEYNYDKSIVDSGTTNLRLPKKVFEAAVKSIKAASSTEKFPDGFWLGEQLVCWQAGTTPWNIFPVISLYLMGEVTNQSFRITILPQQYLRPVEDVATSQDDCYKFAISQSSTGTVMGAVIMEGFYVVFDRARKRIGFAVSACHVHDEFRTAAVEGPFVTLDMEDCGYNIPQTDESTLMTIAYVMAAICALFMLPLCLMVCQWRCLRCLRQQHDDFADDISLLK

On to `C=CC[C@H](NC(=O)[C@H](F)C(F)(F)F)[C@H](O)CN[C@H]1CC2(CCC2)Oc2ncc(CC(C)(C)C)cc21` [Example 138, (2S)-N-((1S)-1-((1R)-2-(((4′S)-6′-(2,2-dimethylpropyl)-3′,4′-dihydrospiro[cyclobutane-1,2′-pyrano[2,3-b]pyridin]-4′-yl)amino)-1-hydroxyethyl)-3-buten-1-yl)-2,3,3,3-tetrafluoropropanamide], for which the IC50 at BACE1 stood at 115 nM; in test [1] (Homo sapiens, HEK293, 24 h), 194 nM.
`CC=CC[C@H](NC(=O)[C@H]1CCC(=O)O1)[C@H](O)CN[C@H]1C[C@]2(C[C@H](F)C2)Oc2ncc(CC(C)(C)C)cc21` [Example 108, (2R)-N-((1S)-1-((1R)-2-(((1s,3S,4′S)-6′-(2,2-dimethylpropyl)-3-fluoro-3′,4′-dihydrospiro[cyclobutane-1,2′-pyrano[2,3-b]pyridin]-4′-yl)amino)-1-hydroxyethyl)-3-penten-1-yl)-5-oxotetrahydro-2-furancarboxamide]: in test [1], the 50% inhibitory concentration (IC50) stood at 95 nM.
Consider `C=CC[C@H](NC(=O)c1ccccc1)[C@H](O)CN[C@H]1CC2(CCC2)Oc2ncc(CC(C)(C)C)cc21` [Example 59, N-((1S)-1-((1R)-2-(((4′S)-6′-(2,2-dimethylpropyl)-3′,4′-dihydrospiro[cyclobutane-1,2′-pyrano[2,3-b]pyridin]-4′-yl)amino)-1-hydroxyethyl)-3-buten-1-yl)benzamide], for which the IC50 worked out at 125 nM at BACE1 and 349 nM in test [1] (Homo sapiens, HEK293, 24 h).
The like results for `C=CC[C@H](NC(=O)c1cc(F)c(F)c(F)c1)[C@H](O)CN[C@H]1CC2(CCC2)Oc2ncc(CC(C)(C)C)cc21` [Example 79, N-((1S)-1-((1R)-2-(((4′S)-6′-(2,2-dimethylpropyl)-3′,4′-dihydrospiro[cyclobutane-1,2′-pyrano[2,3-b]pyridin]-4′-yl)amino)-1-hydroxyethyl)-3-buten-1-yl)-3,4,5-trifluorobenzamide] were, in that order, 465 nM and 1970 nM.
For `C=CC[C@H](NC(=O)COC)[C@H](O)CNC1CC2(CCC2)Oc2ncc(CC(C)C)cc21` (stereo partly drawn) [Example 39, N-((1S)-1-((1R)-1-hydroxy-2-((6′-(2-methylpropyl)-3′,4′-dihydrospiro[cyclobutane-1,2′-pyrano[2,3-b]pyridin]-4′-yl)amino)ethyl)-3-buten-1-yl)-2-(methyloxy)acetamide], the IC50 on BACE1 was 147 nM.
Still for that read-out and setting: under `CC(=O)N[C@H]([C@H](O)CN[C@H]1CC2(CCC2)Oc2ncc(CC(C)(C)C)cc21)C(C)(C)C` [Example 81, N-((1S)-1-((1R)-2-(((4′S)-6′-(2,2-dimethylpropyl)-3′,4′-dihydrospiro[cyclobutane-1,2′-pyrano[2,3-b]pyridin]-4′-yl)amino)-1-hydroxyethyl)-2,2-dimethylpropyl)acetamide] stands 21400 nM.
Still for that read-out and setting: the result for `C=CC[C@H](NC(C)=O)[C@H](O)CN[C@H]1C[C@@]2(CC[C@@H]2O)Oc2ncc(CC(C)(C)C)cc21` [Example 53, N-((1S)-1-((1R)-2-(((1R,2S,4′S)-6′-(2,2-dimethylpropyl)-2-hydroxy-3′,4′-dihydrospiro[cyclobutane-1,2′-pyrano[2,3-b]pyridin]-4′-yl)amino)-1-hydroxyethyl)-3-buten-1-yl)acetamide] reads 8220 nM.
`C=CC[C@H](NC(=O)COC)[C@H](O)CN[C@H]1CC2(CCC2)Oc2ncc(C[C@H](C)C(F)(F)F)cc21` [Example 123, N-((1S)-1-((1R)-1-hydroxy-2-(((4′S)-6′-((2S)-3,3,3-trifluoro-2-methylpropyl)-3′,4′-dihydrospiro[cyclobutane-1,2′-pyrano[2,3-b]pyridin]-4′-yl)amino)ethyl)-3-buten-1-yl)-2-(methyloxy)acetamide]: the IC50 on BACE1 worked out at 177 nM.
Regarding `C=CC[C@H](NC(C)=O)[C@H](O)CN[C@H]1CC2(CCC2)Oc2ccc(CC(C)(C)C)cc21` [Example 33, N-((1S)-1-((1R)-2-(((4S)-6-(2,2-dimethylpropyl)-3,4-dihydrospiro[chromene-2,1′-cyclobutan]-4-yl)amino)-1-hydroxyethyl)-3-buten-1-yl)acetamide], on BACE1, the IC50 came to 212 nM.
On the same count and under the same terms, under `C=CCC(NC(C)=O)C(O)CNC1CC2(CC(C#N)C2)Oc2ncc(CC(C)(C)C)cc21` [Example 114, N-((1S)-1-((1R)-2-(((1r,3S,4′S)-3-cyano-6′-(2,2-dimethylpropyl)-3′,4′-dihydrospiro[cyclobutane-1,2′-pyrano[2,3-b]pyridin]-4′-yl)amino)-1-hydroxyethyl)-3-buten-1-yl)acetamide] stands 378 nM; under `C=CC[C@H](NC(C)=O)[C@H](O)CN[C@H]1CC2(CCC2)Oc2ncc(C[C@H](C)C(F)(F)F)cc21` [Example 122, N-((1S)-1-((1R)-1-hydroxy-2-(((4′S)-6′-((2S)-3,3,3-trifluoro-2-methylpropyl)-3′,4′-dihydrospiro[cyclobutane-1,2′-pyrano[2,3-b]pyridin]-4′-yl)amino)ethyl)-3-buten-1-yl)acetamide], 322 nM; under `C=CC[C@H](NC(C)=O)[C@H](O)CN[C@H]1C[C@]2(CC[C@H]2O)Oc2ncc(CC(C)(C)C)cc21` [Example 52, N-((1S)-1-((1R)-2-(((1S,2R,4′S)-6′-(2,2-dimethylpropyl)-2-hydroxy-3′,4′-dihydrospiro[cyclobutane-1,2′-pyrano[2,3-b]pyridin]-4′-yl)amino)-1-hydroxyethyl)-3-buten-1-yl)acetamide], 70 nM.
As for `C=CC[C@H](NC(=O)COC)[C@H](O)CN[C@H]1CC2(CCC2)Oc2ccc(CC(C)(C)C)cc21` [Example 34, N-((1S)-1-((1R)-2-(((4S)-6-(2,2-dimethylpropyl)-3,4-dihydrospiro[chromene-2,1′-cyclobutan]-4-yl)amino)-1-hydroxyethyl)-3-buten-1-yl)-2-(methyloxy)acetamide], the IC50 at BACE1 came out at 61 nM.
Still for that read-out and setting: under `C=CC[C@H](NC(=O)c1ccno1)[C@H](O)CN[C@H]1CC2(CCC2)Oc2ncc(CC(C)(C)C)cc21` [Example 93, N-((1S)-1-((1R)-2-(((4′S)-6′-(2,2-dimethylpropyl)-3′,4′-dihydrospiro[cyclobutane-1,2′-pyrano[2,3-b]pyridin]-4′-yl)amino)-1-hydroxyethyl)-3-buten-1-yl)-5-isoxazolecarboxamide] stands 43 nM.
On the same count and under the same terms, under `C=CC[C@H](NC(=O)COC)[C@H](O)CN[C@H]1CC2(CCC2)Oc2ncc(C[C@@H](C)C(F)(F)F)cc21` [Example 124, N-((1S)-1-((1R)-1-hydroxy-2-(((4′S)-6′-((2R)-3,3,3-trifluoro-2-methylpropyl)-3′,4′-dihydrospiro[cyclobutane-1,2′-pyrano[2,3-b]pyridin]-4′-yl)amino)ethyl)-3-buten-1-yl)-2-(methyloxy)acetamide] stands 412 nM; under `CCC[C@H](NC(C)=O)[C@H](O)CN[C@H]1C[C@@]2(CC[C@@H]2O)Oc2ncc(CC(C)(C)C)cc21` [Example 54, N-((1S)-1-((1R)-2-(((1R,2S,4′S)-6′-(2,2-dimethylpropyl)-2-hydroxy-3′,4′-dihydrospiro[cyclobutane-1,2′-pyrano[2,3-b]pyridin]-4′-yl)amino)-1-hydroxyethyl)butyl)acetamide], 18600 nM.
Same read-out and setting: under `C=CC[C@H](NC(=O)[C@H]1CCCO1)[C@H](O)CN[C@H]1CC2(CCC2)Oc2ncc(CC(C)(C)C)cc21` [Example 92, (2R)-N-((1S)-1-((1R)-2-(((4′S)-6′-(2,2-dimethylpropyl)-3′,4′-dihydrospiro[cyclobutane-1,2′-pyrano[2,3-b]pyridin]-4′-yl)amino)-1-hydroxyethyl)-3-buten-1-yl)tetrahydro-2-furancarboxamide] stands 84 nM; under `C=CCC(NC(=O)COC)C(O)CNC1CC2(CC(C#N)C2)Oc2ncc(CC(C)(C)C)cc21` [Example 113, N-((1S)-1-((1R)-2-(((1r,3S,4′S)-3-cyano-6′-(2,2-dimethylpropyl)-3′,4′-dihydrospiro[cyclobutane-1,2′-pyrano[2,3-b]pyridin]-4′-yl)amino)-1-hydroxyethyl)-3-buten-1-yl)-2-(methyloxy)acetamide], 302 nM.
